For one series, the target named is T1, TRPV1 receptor (Rattus norvegicus, UniProt O35433).
T1 construct: The neurons of the DRG naturally express the TRPV1 receptor; endogenous in cells; host or cells: primary culture of newborn rat dorsal root ganglion neurons
Description: Inhibition of the current induced by capsaicin on rat DRGs (whole-cell patch-clamp). Format: cell-based. To be noted: DRG neuron, inhibition of control capsaicin (1 microM) response, newborn rat DRG neurons; for inhibition at 0.01 µM: compound at 10 nM; for inhibition at 0.001 µM: compound at 1 nM. On the procedure: Test for Inhibition of the Current Induced by Capsaicin on Rat DRGs
• Primary culture of rat dorsal root ganglion (DRG) cells:
The neurons of the DRG naturally express the TRPV1 receptor.
Newborn rat DRG primary cultures are prepared from one-day-old rat pups. Briefly, after dissection, the ganglia are trypsinized and the cells are mechanically dissociated by controlled trituration. The cells are resuspended in an Eagle's basal culture medium containing 10% of foetal calf serum, 25 mM KCl, 2 mM glutamine, 100 μg/ml gentamycin and 50 ng/ml of NGF, and then deposited onto laminin-coated glass cover slips (0.25×10^6 cells per cover slip) which are then placed in 12-well Corning dishes. The cells are incubated at 37° C. in a humidified atmosphere containing 5% CO2 and 95% air. Cytosine β-D-arabinoside (1 μM) is added 48 h after placing in culture, in order to prevent the development of non-neuronal cells. The cover slips are transferred into the experimental chambers for the patch-clamp studies after 7-10 days of culture. • Electrophysiology:
The measuring chambers (volume 800 μl) containing the cell preparation are placed on the platform of an inverted microscope (Olympus IMT2) equipped with Hoffman optics (Modulation Contrast, New York) and observed at the magnification of ×400. The chambers are continually perfused by gravity (2.5 ml/min) by means of a solution distributing device with 8 inlets, and the sole outlet of which, consisting of a polyethylene tube (500 μm aperture), is placed at least 3 mm from the cell studied. The “whole cell” configuration of the patch-clamp technique was used. The borosilicate glass pipettes (resistance 5-10 MOhms) are moved close to the cell by means of a 3D piezoelectric micromanipulator (Burleigh, PC1000). The overall currents (membrane potential fixed at −60 mV) are recorded with an Axopatch 1D amplifier (Axon Instruments, Foster city, Calif.), connected to a PC control by Pclamp8 software (Axon Instrument). The current traces are recorded on paper and simultaneously digitized (sampling frequency […]) and acquired on the hard drive of the PC.
The application of a micromolar solution of capsaicin causes, on the DRG cells (voltage fixed at −70 mV), an inward cationic current. In order to minimize the desensitization of the receptors, a minimum period of one minute is observed between two applications of capsaicin. After a controlled period (stabilization of the capsaicin response alone), the compounds to be tested are applied alone at a given concentration (concentration of 10 nM or of […]) for a period of 4 to 5 minutes, during which several capsaicin+compound tests are carried out (obtaining of maximum inhibition). The results are expressed as % inhibition of the control capsaicin response.
In general terms: In patch-clamp work, channel activity is measured electrically.

The target in another series is T2, TRPV1 receptors (Mus musculus, UniProt Q704Y3).
T2 construct: from tissue; host or cells: cornea of the living mouse (in vivo)
T2 sequence (Q704Y3 whole entry): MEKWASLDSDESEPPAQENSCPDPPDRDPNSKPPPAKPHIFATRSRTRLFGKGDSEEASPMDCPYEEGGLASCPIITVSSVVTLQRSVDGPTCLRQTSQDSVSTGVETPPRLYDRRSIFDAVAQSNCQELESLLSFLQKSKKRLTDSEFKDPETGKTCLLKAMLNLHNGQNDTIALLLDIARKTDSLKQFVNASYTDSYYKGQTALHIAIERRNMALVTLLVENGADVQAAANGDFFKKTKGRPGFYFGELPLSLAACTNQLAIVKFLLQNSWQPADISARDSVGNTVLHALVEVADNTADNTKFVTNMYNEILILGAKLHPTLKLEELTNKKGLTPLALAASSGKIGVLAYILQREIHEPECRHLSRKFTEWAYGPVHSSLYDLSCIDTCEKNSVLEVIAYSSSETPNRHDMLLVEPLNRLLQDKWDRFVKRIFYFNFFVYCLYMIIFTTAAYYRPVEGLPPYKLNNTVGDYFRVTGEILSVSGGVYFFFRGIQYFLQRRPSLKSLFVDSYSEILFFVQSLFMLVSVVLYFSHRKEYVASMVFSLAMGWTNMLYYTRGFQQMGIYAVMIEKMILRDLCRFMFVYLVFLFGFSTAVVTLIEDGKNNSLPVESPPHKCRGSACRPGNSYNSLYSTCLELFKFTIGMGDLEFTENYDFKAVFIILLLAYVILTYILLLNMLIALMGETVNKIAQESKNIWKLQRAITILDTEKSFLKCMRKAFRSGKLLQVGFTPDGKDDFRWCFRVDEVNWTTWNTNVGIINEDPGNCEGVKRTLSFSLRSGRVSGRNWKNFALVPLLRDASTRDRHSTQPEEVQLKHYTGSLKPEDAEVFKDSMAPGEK
Description: Mouse corneal irritation test (capsaicin-induced eye rubbing). Format: in vivo. Particulars: compound 500 μM, 2 μl local application to cornea 10 min before capsaicin 160 μM; eye rubs counted over 2 min. On the procedure:
Mouse Corneal Irritation Test
The irritant nature of capsaicin can be readily assessed at the level of the cornea since this organ is one of the most innervated by C fibres. In this context, according to preliminary experiments, the application of a very small amount of capsaicin (2 μl at a concentration of 160 μM) to the surface of the cornea of an animal results in a certain number of stereotyped behaviors associated with the irritation and that can be readily listed. Among these are: blinking of the eye, rubbing of the instilled eye with the ipsilateral forelimb, rubbing of the face with both forelimbs, scratching of the ipsilateral face with the hind limb. […]
In practice, the product to be tested, prepared at 25 mM in DMSO and diluted for its final use in physiological serum with 10% Tween 80, at the highest concentration of 500 μM, is administered by local application to the surface of the cornea in a volume of 2 μl, 10 minutes before the application of the capsaicin. […] Over the course of a period of observation of 2 minutes following the instillation, the number of times the instilled eye is rubbed by the ipsilateral forelimb is counted for each animal. For each given group, the percentage protection is calculated as follows: P=100−((average number of scratches of the group treated with the compound/average number of scratches of the group treated with the solvent)×100) […]

The results in this text go back to patent US8586573B2, “N-(Aminoheteroaryl)-1H-indole-2-carboxamide derivatives, and preparation and therapeutic application thereof” (Sanofi, priority 2006, dated 2013).

T1 sequence (O35433 whole entry): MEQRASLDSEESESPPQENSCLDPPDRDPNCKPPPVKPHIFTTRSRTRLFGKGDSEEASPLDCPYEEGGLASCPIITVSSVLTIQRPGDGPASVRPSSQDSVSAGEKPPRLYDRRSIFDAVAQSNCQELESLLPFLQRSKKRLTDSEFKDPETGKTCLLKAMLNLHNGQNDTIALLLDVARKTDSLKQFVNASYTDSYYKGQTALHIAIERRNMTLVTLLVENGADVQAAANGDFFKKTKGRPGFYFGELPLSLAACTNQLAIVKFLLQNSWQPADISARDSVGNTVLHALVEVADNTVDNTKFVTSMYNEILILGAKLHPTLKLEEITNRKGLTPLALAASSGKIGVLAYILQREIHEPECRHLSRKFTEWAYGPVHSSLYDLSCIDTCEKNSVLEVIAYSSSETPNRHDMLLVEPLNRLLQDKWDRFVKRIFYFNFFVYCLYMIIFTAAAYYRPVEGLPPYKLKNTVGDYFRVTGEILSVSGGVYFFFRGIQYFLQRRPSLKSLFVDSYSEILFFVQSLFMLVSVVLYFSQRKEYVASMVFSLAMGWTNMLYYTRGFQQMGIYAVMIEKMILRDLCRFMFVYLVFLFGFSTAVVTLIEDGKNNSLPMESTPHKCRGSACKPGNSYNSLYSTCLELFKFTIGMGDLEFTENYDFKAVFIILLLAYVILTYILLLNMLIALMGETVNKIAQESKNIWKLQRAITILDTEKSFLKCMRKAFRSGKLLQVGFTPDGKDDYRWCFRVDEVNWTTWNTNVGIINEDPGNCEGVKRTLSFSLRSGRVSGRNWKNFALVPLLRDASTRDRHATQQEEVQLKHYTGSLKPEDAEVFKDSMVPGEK

Turning to `O=C(Nc1cnc(N2CCCC2)nc1)c1cc2cc(F)ccc2n1Cc1cccc(F)c1` [Compound 21, N-[2-(pyrrolidin-1-yl)pyrimidin-5-yl]-5-fluoro-1-(3-fluorobenzyl)-1H-indole-2-carboxamide], the melting point (as a rule, the temperature of the solid-liquid transition) was 220 to 222 °C. Also, on TRPV1 receptor, testing at 0.01 µM gave an inhibition of 79%.
Take `O=C(Nc1ccc(N2CCC2)nc1)c1cc2cc(F)ccc2n1Cc1cccc(F)c1` [Compound 4, N-[6-(azetidin-1-yl)pyridin-3-yl]-5-fluoro-1-(3-fluorobenzyl)-1H-indole-2-carboxamide]: 0.001 µM produced 89% inhibition against TRPV1 receptor.
Consider `O=C(Nc1ccc(N2CCCC2)nc1)c1cc2cc(F)ccc2n1Cc1cccc(F)c1` [Compound 2, N-[6-(pyrrolidin-1-yl)pyridin-3-yl]-5-fluoro-1-(3-fluorobenzyl)-1H-indole-2-carboxamide], for which the melting point was 199 to 201 °C. The inhibition (commonly how much of the control response was suppressed) at 0.001 µM on TRPV1 receptor was 46%. In addition, the “% P 500 μM (percentage protection)” value on TRPV1 receptors is recorded as 72%.
`O=C(Nc1ccc(N2CCC(O)C2)nc1)c1cc2cc(F)ccc2n1Cc1cccc(F)c1` (stereo not shown) [Compound 7, N-[6-(3-hydroxypyrrolidin-1-yl)pyridin-3-yl]-5-fluoro-1-(3-fluorobenzyl)-1H-indole-2-carboxamide] yielded an inhibition at 0.01 µM against TRPV1 receptor of 85%.
